Laboratory results published in ChEMBL document CHEMBL4819132, “Discovery of novel tripeptide propylene oxide proteasome inhibitors for the treatment of multiple myeloma” (Bioorg Med Chem, 2021).

Tests used:
Type in all cases: ADME, organism-based
[1] = Mean residence time in Sprague-Dawley rat at 1 mg/kg, iv measured by LC-MS/MS analysis; settings: in vivo
[2] = Tmax in Sprague-Dawley rat at 10 mg/kg, ig measured by LC-MS/MS analysis; settings: in vivo, po
[3] = AUClast in Sprague-Dawley rat at 1 mg/kg, iv measured by LC-MS/MS analysis; parameters: dose 1 mg/kg; settings: in vivo
[4] = Tmax in Sprague-Dawley rat at 1 mg/kg, iv measured by LC-MS/MS analysis; settings: in vivo
[5] = Bioavailability in Sprague-Dawley rat at 10 mg/kg, ig measured by LC-MS/MS analysis; settings: in vivo, po
[6] = AUClast in Sprague-Dawley rat at 10 mg/kg, ig measured by LC-MS/MS analysis; parameters: dose 10 mg/kg; settings: in vivo, po
[7] = Mean residence time in Sprague-Dawley rat at 10 mg/kg, ig measured by LC-MS/MS analysis; settings: in vivo, po

| MRT [1] | Tmax [2] | AUClast [3] | Tmax [4] | bioavailability [5] | AUClast [6] | MRT [7] | Compound |
| --- | --- | --- | --- | --- | --- | --- | --- |
| 19.8 min | 13.2 min | 107 ng·mL·h | 4.8 min | 13.5% | 119 ng·mL·h | 51.6 min | COC[C@H](NC(=O)c1cc(C)on1)C(=O)NCC(=O)N[C@@H](CC(C)C)C(=O)[C@@]1(C)CO1 |
| 8.4 min | 10.2 min | 72 ng·mL·h | 4.8 min | 6.3% | 42 ng·mL·h | 36.6 min | COC[C@H](NC(=O)c1cc(C)on1)C(=O)NCC(=O)N[C@@H](Cc1ccccc1)C(=O)[C@@]1(C)CO1 |
